Experimental data published in patent US9889088B2, “Alpha-2 adrenergic agonist having long duration of intraocular pressure-lowering effect” (priority 2010, dated 2018).

Columns and labels:
corneal epithelial cells = assay: Corneal penetration assay
[1] = Corneal penetration assay
[2] = Pharmacokinetic analysis of ocular tissues and plasma after topical dosing in rabbits; type: in vivo, rabbit
Procedure: Twenty-three Dutch Belted female rabbits (group 1) weighing approximately 1.75-2.34 kg were dosed with 35 μL of the formulation to the left eye. At different time points, prior to euthanasia, approximately 0.5 mL of blood was collected via central ear artery and placed in EDTA tubes. Blood samples were kept on ice during the duration of sample collection and centrifuged to harvest plasma. Animals were euthanized with 1 mL of Euthasol intravenously and the ocular tissues (aqueous humor, cornea, conjunctiva, iris-ciliary body, retina, and sclera) were collected from left and right eyes. All ocular tissues samples were placed in vials and kept on dry ice during the duration of sample collection. Ocular tissues were also collected from the control group (group 2) which received no dose. These ocular tissues served as analytical control. All ocular tissue and plasma samples were stored at or below −60° C. until bioanalysis.
(Acheampong et al. (Drug Metabolism and Disposition, Vol 23, No. 7, p 708-712).

[3] = rats, after oral dose of brimonidine tartrate; Acheampong et al. 2007; cited from earlier work
[4] = Iris-ciliary body accumulation and melanin binding (pharmacokinetic data); conditions: unpublished pharmacokinetic data
[5] = tested on: intraocular pressure of normotensive Dutch-Belted male rabbits; assay: Intraocular pressure lowering after a single topical eye drop in normotensive rabbits; type: in vivo, rabbit; conditions: for time for which the decrease in intraocular pressure is maintained: single 50 μl drop, treated eye; for sedation, ocular irritation, and changes in pupil diameter: single topical drop, observed throughout the experiment
Procedure: The free base of 4-bromo-N-imidazolidin-2-ylidene-1-H-benzimidazol-5-amine was dissolved in sterile distilled water, hydrochloric acid was added and the hydrochloric salt of the compound was formed in situ. The solution was titrated with sodium hydroxide until the pH of the solution reached 8.0. […] The experimental animals used were normotensive Dutch-Belted male rabbits. A single drop (50 μl) of the drug formulation was administered topically by pipette onto the right eye (treated eye) at approximately 07:00 AM hours. The intraocular pressure of the rabbits (treated and untreated eyes) was measured 0 hours before and at 0.5, 1, 2, 3, 4, 6 and 8 hours after topical eye drop single administration. The intraocular pressure taken before the eye drop administration (0 hours) was used as a baseline value. Prior to the tonometric measurements, 0.05% proparacaine (50 μl) was administered to each eye. Tonometric intraocular pressure measurements were obtained with a Mentor Pneumotonometer. Additionally, all studies were masked. All animals were examined for sedation, ocular irritation, and changes in pupil diameter throughout the course of the experiments.
The free base of 4-bromo-N-imidazolidin-2-ylidene-1-H-benzimidazol-5-amine was dissolved in sterile distilled water, hydrochloric acid was added and the hydrochloric salt of the compound was formed in situ. The solution was titrated with sodium hydroxide until the pH of the solution reached 8.0. The final concentration of 4-bromo-N-imidazolidin-2-ylidene-1-H-benzimidazol-5-amine is 0.2% by weight. The experimental animals used were normotensive Dutch-Belted male rabbits. A single drop (50 μl) of the drug formulation was administered topically by pipette onto the right eye (treated eye) at approximately 07:00 AM hours. The intraocular pressure of the rabbits (treated and untreated eyes) was measured 0 hours before and at 2, 4 and 6 hours after topical eye drop single administration. The intraocular pressure taken before the eye drop administration (0 hours) was used as a baseline value. Prior to the tonometric measurements, 0.05% proparacaine (50 μl) was administered to each eye. Tonometric intraocular pressure measurements were obtained with a Mentor Pneumotonmeter. Additionally, all studies were masked. All animals were examined for sedation, ocular irritation, and changes in pupil diameter throughout the course of the experiments.

[6] = tested on: intraocular pressure of hypertensive monkeys; assay: Intraocular pressure lowering in hypertensive monkeys; type: in vivo, monkey; conditions: composition of Example 1 (FIG. 4 legend: 0.5% solution), compared to placebo
[7] = cited from earlier work; for clearance from the aqueous humor / passage through cornea and sclera: following topical dosing
[8] = stated as found earlier; cited from earlier work

Brc1c(N=C2NCCN2)ccc2[nH]cnc12 [4-bromo-N-imidazolidin-2-ylidene-1-H-benzimidazol-5-amine]
penetration of corneal epithelial cells (in words) (corneal epithelial cells): poorly
Papp [1]: 0.119 ± 0.01 ×10⁻⁶ cm/s
time for which sustained levels remain in the aqueous humor ([2]; 35 μL topical to left eye, Dutch Belted female rabbits, FIG. 3A): over 8 hours
time for which the level is maintained in several ocular tissues ([2]; 35 μL topical to left eye, FIG. 3B): over 8 hrs
plasma level ([2]; after topical ocular dosing): low and below detectable level
amount found in urine [3]: trace amounts
accumulation at the iris-ciliary body [4]: very little accumulation
melanin binding [4]: no sign of melanin binding
time for which the decrease in intraocular pressure is maintained ([5]; 0.2% by weight solution, topical, FIG. 2): > 6 h
sedation, ocular irritation, and changes in pupil diameter ([5]; 0.2% by weight solution): None of these effects were observed
time for which the decrease in intraocular pressure is maintained ([5]; 1% by weight solution, topical, FIG. 1): > 8 h
sedation, ocular irritation, and changes in pupil diameter ([5]; 1% by weight solution): None of these effects were observed
time for which the decrease in intraocular pressure is maintained [6]: up to 24 hours

Brc1c(NC2=NCCN2)ccc2nccnc12 [Brimonidine, (5-bromo-quinoxalin-6-yl)-imidazolidin-2-ylidene-amine]
penetration of corneal epithelial cells (in words) (corneal epithelial cells): moderate penetrator
Papp [1]: 8.57 ± 0.64 ×10⁻⁶ cm/s
time in which levels in the aqueous humor are substantially decreased ([2]; 0.15% brimonidine, similar study done previously, FIG. 3A): 3 h
time in which intraocular pressure returns to baseline ([5]; brimonidine containing composition (0.15% solution per FIG. 1 legend), topical): < 6 h
clearance from the aqueous humor [7]: rapidly cleared
passage through cornea and sclera [7]: readily pass through the cornea and sclera
time in which the level decreases in aqueous humor ([7]; regardless of the dose, Acheampong et al.): three
accumulation in the iris-ciliary body [8]: accumulate in the iris-ciliary body
binding to the pigment melanin [8]: high binding

OC[C@@H](O)[C@@H](O)[C@H](O)[C@H](O)CO [Compound 3H-mannitol, 3H-mannitol]
Papp (×10^−6 cm/s) (corneal epithelial cells; permeability coefficient, corneal epithelial cells): 0.512 ± 0.069 ×10^−6 cm/s

Nc1cc(Cl)c(N=C2NCCN2)c(Cl)c1 [apraclonidine, 2,6-dichloro-N-imidazolidin-2-ylidene-benzene-1,4-diamine]
clearance from the aqueous humor [7]: rapidly cleared
passage through cornea and sclera [7]: readily pass through the cornea and sclera
accumulation in the iris-ciliary body [8]: accumulate in the iris-ciliary body
binding to the pigment melanin [8]: high binding
